Entries after “also recorded” stand apart in the source; their conditions may differ.
Assays:
Format in all cases: cell-based, human
[1] = test system: pAEC from asthmatic children; test: Scratch wound repair assay (wound closure), pAEC from asthmatic children; details: for accelerated repair compared to DMSO vehicle: 10 μM, 48 hours treatment post wounding; for promotion of pAEC repair relative to celecoxib: screen at 10 μM, cohort not given
Procedure: (§1) Two in vitro scratch wound models were used. […] Wound closure was calculated through image analysis by the accompanying live-cell imaging system (Essen Bioscience, Ann Arbor, Mich., USA).
(§2) To assess in vitro wound repair kinetics, linear scratch wounds were created using a commercial monolayer wounding kit. Once confluent, cell cultures were placed in starvation media (BEGM™ without epidermal growth factor) for about 24 hours prior to wounding. At the time of wounding, cell cultures were treated with compound dilution (10 μM), DMSO vehicle (0.05% v/v) or untreated. Wound closure rates were calculated through image analysis by the accompanying live-cell imaging system (Essen Bioscience, Ann Arbor, Mich., USA).

[2] = test system: pAEC from non-asthmatic children; test: MTS cell viability assay, pAEC from non-asthmatic children
Procedure: (§3) Cell viability was assessed using a 3-[4,5-dimethylthiazol-2yl]-5-[3-carboxymethoxyphenyl]-2-[4-sulfophenyl]-2H-tetrazolium inner salt (MTS) assay (Promega).
Cell viability was assessed using a 3-[4,5-dimethylthiazol-2yl]-5-[3-carboxymethoxyphenyl]-2-[4-sulfophenyl]-2H-tetrazolium inner salt (MTS) assay (Promega, Madison, Wis., USA). […]

[3] = test system: pAEC from asthmatic children; test: MTS cell viability assay, pAEC from asthmatic children
Procedure: as §3
Cell viability was assessed using a 3-[4,5-dimethylthiazol-2yl]-5-[3-carboxymethoxyphenyl]-2-[4-sulfophenyl]-2H-tetrazolium inner salt (MTS) assay (Promega, Madison, Wis., USA). Once confluent, cell cultures were treated with 10 μM compound, DMSO vehicle (0.05% v/v) or untreated for 48 hours.

[4] = test system: leading edge pAEC from non-asthmatic children; test: Leading edge cell tracking after scratch wounding, pAEC from non-asthmatic children; details: Wortmannin 0.01-10 μM, MK2206 0.01-5 μM
Procedure: (§4) Manual Tracking, an ImageJ2 plugin publicly available was utilized for its capacity to manually track cells in two dimensions, the x and y planes. […] The selected cells were tracked over the first 12 h post wounding, where this procedure generated x and y coordinates for the position of the nucleus of each tracked cell at each time point. The x,y coordinates of the tracked cells were exported in a tab delimited format and all tracks were transformed to migrate up towards the y-axis. Graphical representation and analysis of the cell migration parameters was performed using the Chemotaxis and Migration Tool 2.0 (Ibidi®, Martinsried, Bayern, Germany). […] Migration parameters of cell tracks were then quantified including; (1) distance migrated (μm) which represented the displacement of a cell from the start to its endpoint, (2) velocity (μm/min), which is a function of displacement overtime, and (3) directionality (AU), which represents a measurement of the directness or straightness of a cell trajectory and was calculated as a ratio of the cell displacement over the accumulated distance migrated. […] Since directionality is not a direct measure of chemotaxis, the determined forward migration index (FMI) (AU) was then utilized to represent the efficiency of the leading edge cells to migrate towards the center of the wounded area. […]

[5] = test system: integrin α5; test: On-Cell Western assay of integrin α5 cell membrane expression, pAEC from non-asthmatic children
Procedure: (§5) Cells were plated at 1.2×10^5 cells/cm^2 onto 96-well plates precoated with fibronectin ([…]) and maintained as described earlier. Briefly, following relevant treatments and controls, confluent cell monolayers were fixed with 10% (v/v) NBF for 20 minutes at room temperature and then either permeabilized with 0.1% (v/v) Triton X-100 or incubated with PBS for 25 minutes. Cells were blocked for 90 min at room temperature with the Odyssey® blocking buffer (PBS) (LI-COR Biosciences). Cells were then stained with rabbit anti-human integrin α5 (1:100; clone EPR7854, Abcam), mouse anti-human integrin β1 (1:1000; clone P5D2, Abcam), rabbit anti-human phospho-Akt (Ser473) (1:100; clone D9E, Abcam) or mouse anti-human total Akt (pan) (1:100; clone 40D4, Abcam) for 24 hours at 4° C. Antibody binding was determined using IRDye 800 CW-conjugated goat anti-rabbit IgG (1:800; 925-32211, LI-COR Biosciences) and goat anti-mouse IgG (1:800; 925-32210, LI-COR Biosciences), as well as DRAQ5 (1:10000; DR50200, BioStatus Limited) and Sapphire700 (1:1000; 928-40022, LI-COR Biosciences) for cell number normalization, for 1 hour at RT with gentle shaking in the dark. Specific antibody staining for protein expression was then immediately visualized and quantified using an infrared imaging system (LI-COR Biosciences).
After this, cells were washed in 1× phosphate-buffered saline (PBS) and incubated with IRDye-conjugated secondary antibody (1:800 goat anti-rabbit and goat anti-mouse IgG, LI-COR Biosciences, Lincoln, Nebr., USA) containing DRAQ5 (1:10000, BioStatus Limited, Shepshed, United Kingdom) and Sapphire700 (1:1000, LI-COR Biosciences, Lincoln, Nebr., USA) for 1 hour at RT with gentle shaking in a dark room. Cells were then washed for an additional five times in PBS. Specific antibody staining for protein expression was then immediately visualized using an infrared imaging system (LI-COR Biosciences, Lincoln, Nebr., USA

[6] = test system: pAEC from non-asthmatic children; test: Scratch wound repair assay (wound closure), pAEC from non-asthmatic children; details: treated at time of scratch wounding; Wortmannin 0.01-10 μM, MK2206 0.01-5 μM
Procedure: as §1, §2

[7] = test system: Akt (serine residue 473); test: In-Cell Western assay of Akt phosphorylation, pAEC from non-asthmatic children; details: concentration series (Wortmannin 0.01-10 μM, MK2206 0.01-5 μM); 12 h and 48 h post treatment
Procedure: as §5

[8] = test system: integrin β1; test: On-Cell Western assay of integrin β1 cell membrane expression, pAEC from non-asthmatic children; details: MK2206; 12 h treatment
Procedure: (§6) Cells were plated at 1.2×10^5 cells/cm^2 onto 96-well plates precoated with fibronectin ([…]) and maintained as described earlier. Briefly, following relevant treatments and controls, confluent cell monolayers were fixed with 10% (v/v) NBF for 20 minutes at room temperature and then either permeabilized with 0.1% (v/v) Triton X-100 or incubated with PBS for 25 minutes. Cells were blocked for 90 min at room temperature with the Odyssey® blocking buffer (PBS) (LI-COR Biosciences). Cells were then stained with rabbit anti-human integrin α5 (1:100; clone EPR7854, Abcam), mouse anti-human integrin β1 (1:1000; clone P5D2, Abcam), rabbit anti-human phospho-Akt (Ser473) (1:100; clone D9E, Abcam) or mouse anti-human total Akt (pan) (1:100; clone 40D4, Abcam) for 24 hours at 4° C. Antibody binding was determined using IRDye 800 CW-conjugated goat anti-rabbit IgG (1:800; 925-32211, LI-COR Biosciences) and goat anti-mouse IgG (1:800; 925-32210, LI-COR Biosciences), as well as DRAQ5 (1:10000; DR50200, BioStatus Limited) and Sapphire700 (1:1000; 928-40022, LI-COR Biosciences) for cell number normalization, for 1 hour at RT with gentle shaking in the dark. Specific antibody staining for protein expression was then immediately visualized and quantified using an infrared imaging system (LI-COR Biosciences). […]

[9] = test system: pAEC from asthmatic children; test: Scratch wound repair assay (wound closure), pAEC from asthmatic children; details: SC79 0.5-20 μM at time of scratch wounding
[10] = test system: Akt (serine residue 473); test: In-Cell Western assay of Akt phosphorylation, pAEC from asthmatic children; details: SC79 0.5-20 μM; 12 h and 48 h post treatment
Procedure: as §5

[11] = test system: integrin α5; test: On-Cell Western assay of integrin α5 cell membrane expression, pAEC from asthmatic children; details: 0.5, 2 and 5 μM SC79; 12 h and 48 h
Procedure: as §6

[12] = test system: leading edge pAEC from asthmatic children; test: Leading edge cell tracking after scratch wounding, pAEC from asthmatic children; details: SC79 0.5-20 μM
Procedure: as §4

[13] = test system: integrin β1; test: On-Cell Western assay of integrin β1 cell membrane expression, pAEC from asthmatic children; details: 0.5, 2 and 5 μM SC79; 12 h and 48 h
Procedure: as §6

[14] = 10 μM, 48 hours, change of less than or equal to 20% relative to DMSO vehicle considered non-cytotoxic
[15] = 0.01, 0.1, 1 μM (all concentrations bar the highest)

Nc1ccc(S(N)(=O)=O)cc1 [Compound C17, Sulfanilamide]
accelerated repair compared to DMSO vehicle [1]: no improvement

Cc1ccc(C)c(-c2cc(C(F)(F)F)nn2-c2ccc(S(N)(=O)=O)cc2)c1 [Compound C6, 2,5-Dimethyl-Celecoxib]
promotion of pAEC repair relative to celecoxib [1]: comparable efficacy

CN1C(C(=O)Nc2ccccn2)=C(O)c2ccccc2S1(=O)=O [Compound C13, Piroxicam]
accelerated repair compared to DMSO vehicle [1]: no improvement

Cc1ccc(-c2cc(C(F)(F)F)nn2-c2ccc(S(N)(=O)=O)cc2)cc1 [Compound C3, Celecoxib]
cell viability (MTS) [2, 14]: did not display any change in cell viability
cell viability (MTS) [3, 14]: did not display any change in cell viability
cell viability (MTS) ([3]; 0.01, 0.1, 1, 10 μM, listed as Celecoxib): did not cause significant cytotoxicity
cell viability (MTS) ([3]; 0.01, 0.1, 1, 10 μM, listed as celecoxib): not cytotoxic

NS(=O)(=O)c1ccccc1 [Compound C2, Benzenesulfonamide]
accelerated repair compared to DMSO vehicle [1]: no improvement

CS(=O)(=O)c1ccc(-n2nc(C(F)(F)F)cc2-c2ccc(F)cc2)cc1 [Compound C22, 5-(4-fluorophenyl)-1-[4-(methylsulfonyl)phenyl]-3-(trifluoromethyl)-1H-pyrazole]
promotion of pAEC repair relative to celecoxib [1]: to a greater degree than celecoxib

CC(=NNc1ccc(S(N)(=O)=O)cc1)c1ccc(C)cc1 [Compound C11]
accelerated repair compared to DMSO vehicle [1]: no improvement

Cc1ccc(C)c(-c2cc(C(F)(F)F)nn2-c2ccc(S(N)(=O)=O)cc2)c1 [dimethyl-Celecoxib]
cell viability (MTS) ([3]; 0.01, 0.1, 1, 10 μM): did not cause significant cytotoxicity
cell viability (MTS) ([3]; 0.01, 0.1, 1, 10 μM, listed as dimethyl-celecoxib): not cytotoxic

Cc1ccc(-c2cc(C(F)(F)F)n[nH]2)cc1 [Compound C19, 3-Trifluoromethy1-5-(p-tolyl)-1H-pyrazole]
accelerated repair compared to DMSO vehicle [1]: no improvement

COC[C@H]1OC(=O)c2coc3c2[C@@]1(C)C1=C(C3=O)[C@@H]2CCC(=O)[C@@]2(C)C[C@H]1OC(C)=O [Wortmannin]
cell viability (MTS) ([2]; 10 μM Wortmannin): significant loss of viability
cell viability (MTS) [2, 15]: did not have a significant cytotoxic effect; also recorded: did not cause significant cytotoxicity

O=C(O)c1cc(/N=N/c2ccc(S(=O)(=O)Nc3ccccn3)cc2)ccc1O [Compound C15, Sulfasalazine]
accelerated repair compared to DMSO vehicle [1]: no improvement

NC1(c2ccc(-c3nc4ccn5c(=O)[nH]nc5c4cc3-c3ccccc3)cc2)CCC1 [MK2206]
leading edge cell migration (distance migrated, velocity, directionality, yFMI) [4]: significant inhibition; also recorded: inhibited distance migrated, velocity, directionality and centrality (yFMI)
integrin α5 cell membrane expression ([5]; 1 μM MK2206, 48 h): significant inhibition; also recorded: Significant reduction
integrin α5 cell membrane expression ([5]; MK2206, concentration-dependent, 12 h treatment): concentration-dependent inhibition; also recorded: significant reduction of integrin α5
integrin α5 cell membrane expression ([5]; lower concentrations of MK2206 (below 1 μM), 48 h): not with the lower concentrations
cell viability (MTS) [2, 15]: did not cause significant cytotoxicity
wound closure rates (effect in words) [6]: significant inhibition; also recorded: concentration-dependent reduction in wound closure rates
activation/phosphorylation of Akt (Ser473) [7]: significant inhibition; also recorded: inhibited activation of Akt
integrin β1 cell membrane expression [8]: did not have a significant effect

CCOC(=O)C1=C(N)Oc2ccc(Cl)cc2C1C(C#N)C(=O)OCC (stereo not drawn) [SC79, 2-Amino-6-chloro-α-cyano-3-(ethoxycarbonyl)-4H-1-benzopyran-4-acetic acid ethyl ester]
wound closure rates (effect in words) [9]: significantly enhanced wound closure; also recorded: concentration-dependent increase in wound closure rates
phosphorylation of Akt (Ser473) [10]: augment Akt signaling in a concentration-dependent manner; also recorded: resulted in phosphorylation of Akt
cell viability (MTS) ([3]; SC79 0.5, 2, 5, 10, 20 μM): did not alter cell viability; also recorded: did not cause significant cytotoxicity
integrin α5 cell membrane expression [11]: restored their integrin α5 and β1 expression to equivalent levels to those of non-asthmatic children; also recorded: Significant activation
leading edge cell migration (distance migrated, velocity, directionality, yFMI) [12]: stimulated leading edge cell migration; also recorded: stimulated distance migrated, velocity, directionality and centrality (yFMI)
integrin β1 cell membrane expression [13]: restored their integrin α5 and β1 expression to equivalent levels to those of non-asthmatic children; also recorded: Significant activation

— patent US11559517B2, “Promotion of epithelial repair” (Telethon Kids Institute, priority 2018, dated 2023)
